Results from US7214714B2, “20-hydroxyeicosatetraenoic acid production inhibitors” (Taisho Pharmaceutical Co. Ltd., priority 2001, dated 2007).

What was measured:
[1] = target: 20-HETE-Producing Enzyme derived from Human Renal Microsome; experiment: Inhibitory action to 20-HETE-producing enzyme derived from human renal microsome; type: biochemical; settings: human renal microsome fraction, tritium-arachidonic acid substrate, NADPH, 37° C., 1.5 hours, pH 7.4; read-out: IC50 (inhibition of 20-HETE production)
Method: Inhibitory Action to 20-HETE-Producing Enzyme derived from Human Renal Microsome
With regard to the compounds listed in the above table, their inhibitory actions to 20-HETE production were tested.
This test was carried out in accordance with a method mentioned in J. Pharmacol. Exp. Ther., volume 268, page 474 (1994).
A solution of the test compound adjusted to 1 μM using DMSO was added to a 50 mM of 3-morpholinopropanesulfonic acid buffer (MOPS) (pH 7.4) containing 5 mM of magnesium chloride and 1 mM of sodium ethylenediaminetetraacetate (EDTA), then human renal microsome fraction (Human Cell Culture Center, Anatomic Gift Foundation), [5,6,8,9,11,12,15]tritium-arachidonic acid and NADPH were added thereto as an enzymatic source, a substrate and a coenzyme, respectively and reaction was carried out at 37° C. for 1.5 hours. Formic acid was added to the reaction solution to stop the reaction and then acetonitrile was added thereto (final concentration: 50%). Amount of 20-HETE produced thereby was measured using a high performance liquid chromatography equipped with a radioactive substance detector having an ODS column (Biosil C18; manufactured by Biorad).
Amount of 20-HETE produced when no compound was added was defined as 100% and the concentration of the compound when production of 20-HETE was inhibited to an extent of 50% upon addition of a compound (IC50 value) was calculated.

Compound | melting point | IC50 [1] [µM]
O/N=C/Nc1ccc(N2CCCCCC2)c(C(F)(F)F)c1 [Compound 26] | 127 to 128.5 °C | 0.0252
O/N=C/Nc1ccc(N2CC=CCC2)c(C(F)(F)F)c1 [Compound 19] | 136.5 to 138 °C | 0.018
Cc1cc(N2CCN(C3CCCCC3)CC2)ccc1N/C=N/O.Cl [Compound 111] | 230 to 232 °C (dec.) | 0.0708
OCCC1CCN(c2ccc(N/C=N/O)cn2)CC1 [Compound 132] | 151 to 153 °C | 0.0373
O/N=C/Nc1ccc(N2CC=CCC2)c(F)c1 [Compound 15] | 129 to 130 °C | 0.0039
COc1cc(N2CCOCC2)ccc1N/C=N/O [Compound 130] | 189 to 190 °C (dec.) | 0.0461
O/N=C/Nc1ccc(N2CCN(C3CCCCC3)CC2)cc1 [Compound 105] |  | 0.0148
O/N=C/Nc1ccc(N2CC=CC2)c(Br)c1 [Compound 12] |  | 0.016
CN1CCN(c2ccc(N/C=N/O)cc2Cl)CC1 [Compound 68] | 188 to 189 °C | 0.107
O/N=C/Nc1ccc(N2CCCCCCC2)c(F)c1 [Compound 28] | 137 to 139 °C | 0.0057
O/N=C/Nc1ccc(N2CCN(C3CCCCC3)CC2)c(C(F)(F)F)c1 [Compound 110] | 93 to 96 °C | 0.531
COCCN(CCOC)c1ccc(N/C=N/O)cc1 [Compound 133] | 97 to 98 °C | 0.341
CCN1CCN(c2ccc(N/C=N/O)cc2Br)CC1 [Compound 75] | 204.5 to 206.5 °C | 0.154
CCN1CCN(c2ccc(N/C=N/O)cc2Cl)CC1 [Compound 74] | 207 to 209 °C | 0.0732
Cl.O/N=C/Nc1ccc(N2CCN(C3CCCCC3)CC2)nc1 [Compound 123] | 224 to 226 °C (dec.) | 0.0906
Cc1cc(N2CCCC3CCCCC32)ccc1N/C=N/O (stereo not drawn) [Compound 46] | 154 to 156 °C | 0.033

Compound | melting point | IC50 [1] [µM]
Cc1cc(N2CCC3(CC2)OCCO3)ccc1N/C=N/O [Compound 39] | 147 to 150 °C | 0.0043
O/N=C/Nc1ccc(N2CCSCC2)cc1 [Compound 1] | 138 to 141 °C | 
Cc1cc(N2CC=CCC2)ccc1N/C=N/O [Compound 20] | 146 to 149 °C | 0.663
CCN1CCN(c2ccc(N/C=N/O)cc2)CC1 [Compound 72] | 220 to 222 °C | 0.0392
O/N=C/Nc1ccc(N2CCOCC2)nc1 [Compound 127, N-[2-(morpholino)pyridine-5-yl]-N′-hydroxyformamidine] |  | 0.215
COCCN(CCOC)c1ccc(N/C=N/O)cc1Cl [Compound 119] | 95 to 96.5 °C | 
CCN(CC)C(=O)C1CCCN(c2ccc(N/C=N/O)cc2C(F)(F)F)C1 (stereo not drawn) [Compound 64] | 150 to 156 °C | 0.0194
OCCC1CCN(c2ccc(N/C=N/O)cc2)CC1 [Compound 54] | 186 to 189 °C | 0.0347
O/N=C/Nc1ccc(N2CCCCCCC2)cc1 [Compound 27] | 170 to 173 °C | 0.0102
CCN1CCN(c2ccc(N/C=N/O)cc2C(F)(F)F)CC1 [Compound 77] | 158 to 159 °C | 0.509
O/N=C/Nc1ccc(N2CCC3(CC2)OCCO3)c(F)c1 [Compound 34] | 165 to 167 °C | 0.007
CCN1CCN(c2ccc(N/C=N/O)cc2F)CC1 [Compound 73] | 197 to 200 °C | 0.0372
Cc1cc(N2CCC(CCO)CC2)ccc1N/C=N/O [Compound 58] | 152 to 154 °C | 0.0312
O/N=C/Nc1ccc(N2CCC3(CC2)OCCO3)cc1 [Compound 33] | 157 to 158.5 °C | 0.0036
O/N=C/Nc1ccc(N2CCOCC2)nc1 [Compound 128] | 172 to 174 °C | 

Next, values leading:

melting point | IC50 [1] [µM] | Compound
75 to 77 °C | 0.0214 | O=C(CN1CCN(c2ccc(N/C=N/O)cc2C(F)(F)F)CC1)N1CCOCC1 [Compound 103]
161 to 163 °C | 0.222 | Cl.O/N=C/Nc1ccc(N2CCN(CCN3CCCC3)CC2)c(Cl)c1 [Compound 94]
174 to 176 °C | 0.005 | O/N=C/Nc1ccc(N2CCC3(CC2)OCCO3)c(Cl)c1 [Compound 35]
167 to 169 °C (dec.) | 0.069 | Cl.O=C(CN1CCN(c2ccc(N/C=N/O)cc2)CC1)N1CCOCC1 [Compound 98]
205 °C (dec.) | 0.135 | Cl.O/N=C/Nc1ccc(N2CCN(CCN3CCCC3)CC2)c(F)c1 [Compound 93]
163 to 165 °C | 0.0758 | O/N=C/Nc1ccc(N2CCN(CCN3CCCC3)CC2)c(Br)c1 [Compound 95]
112 to 115 °C | 0.0021 | O/N=C/Nc1ccc(N2CCCCCC2)c(F)c1 [Compound 22]
159 to 161 °C | 0.0032 | O/N=C/Nc1ccc(N2CCC(O)CC2)c(F)c1 [Compound 48]
222 to 223 °C (dec.) | 0.293 | Cl.O/N=C/Nc1ccc(N2CCN(C3CCCCC3)CC2)c(Br)c1 [Compound 108]
229 to 231 °C (dec.) | 1.53 | Cl.O/N=C/Nc1ccc(N2CCN(CCN3CCCC3)CC2)c(C(F)(F)F)c1 [Compound 96]
188 to 190 °C (dec.) | 0.963 | CN(C)CCN1CCN(c2ccc(N/C=N/O)cc2)CC1.Cl [Compound 86]
94 to 96 °C | 0.0035 | O/N=C/Nc1ccc(N2CCN(c3ccccn3)CC2)c(Cl)c1 [Compound 131]
163 to 164 °C (dec.) | 0.0469 | CC1CN(c2ccc(N/C=N/O)cc2Cl)CC(C)O1 (stereo not drawn) [Compound 9]
 | 0.0208 | O=C(CN1CCN(c2ccc(N/C=N/O)cc2Br)CC1)N1CCOCC1 [Compound 101]
 | 0.0419 | O/N=C/Nc1ccc(N2CCN(C3CCCCC3)CC2)c(Cl)c1 [Compound 107]
103.5 to 105 °C | 0.0042 | O/N=C/Nc1ccc(N2CCCCCC2)c(Br)c1 [Compound 24]
149 to 151 °C | 0.0023 | O/N=C/Nc1ccc(N2CCSCC2)c(Br)c1 [Compound 4]

melting point | IC50 [1] [µM] | Compound
196 to 198 °C (dec.) | 0.758 | Cc1cc(N2CCN(CCN3CCCC3)CC2)ccc1N/C=N/O.Cl [Compound 97]
180 to 182 °C (dec.) | 0.0454 | Cl.OCCN1CCN(c2ccc(N/C=N/O)cc2F)CC1 [Compound 80]
172 to 176 °C | 0.0342 | OCCC1CCN(c2ccc(N/C=N/O)cc2F)CC1 [Compound 55]
191 to 192 °C (dec.) | 0.0083 | CC(=O)N1CCN(c2ccc(N/C=N/O)cn2)CC1 [Compound 129]
200 to 202 °C (dec.) | 0.0233 | Cl.OCCN1CCN(c2ccc(N/C=N/O)cc2Cl)CC1 [Compound 81]
135 to 138 °C (dec.) | 0.004 | CCOC(=O)C1CCN(c2ccc(N/C=N/O)cc2Cl)CC1 [Compound 134]
190 to 192 °C (dec.) | 0.044 | OCCN1CCN(c2ccc(N/C=N/O)cc2Br)CC1 [Compound 82]
135 to 137.5 °C | 0.0022 | O/N=C/Nc1ccc(N2CC=CCC2)c(Cl)c1 [Compound 16]
110 to 114 °C | 0.0363 | Cl.O=C(CN1CCN(c2ccc(N/C=N/O)cc2Cl)CC1)N1CCOCC1 [Compound 100]
141 to 142 °C (dec.) | 0.0032 | O/N=C/Nc1ccc(N2CCSCC2)c(F)c1 [Compound 2]
137 to 138.5 °C | 0.0036 | O/N=C/Nc1ccc(N2CCSCC2)c(Cl)c1 [Compound 3, N-hydroxyl-N′-(3-chloro-4-thiomorpholinophenyl)formamidine]
170 °C (dec.) | 0.0719 | Cl.OCCN1CCN(c2ccc(N/C=N/O)cc2)CC1 [Compound 79]
207 °C (dec.) | 0.105 | Cl.O/N=C/Nc1ccc(N2CCN(C3CCCCC3)CC2)c(F)c1 [Compound 106]
93 to 97 °C | 0.0034 | O/N=C/Nc1ccc(N2CCC(O)CC2)c(Cl)c1 [Compound 49]
113 to 114 °C | 0.0022 | O/N=C/Nc1ccc(N2CCCCCC2)c(Cl)c1 [Compound 23]
118 to 121 °C | 0.0125 | O/N=C/Nc1ccc(N2CC=CC2)c(Cl)c1 [Compound 11]
